Results taken from article PMC11317636, “Convergent evolution in toxin detection and resistance provides evidence for conserved bacterial–fungal interactions” (Proceedings of the National Academy of Sciences of the …, 2024).

Experiments:
DnoP (PA4170) = biological target: T1, DnoP (PA4170) (Pseudomonas aeruginosa, UniProt A0A0H2ZG54); assay: DTNB assay of residual free thiols at […] nm; type: biochemical; conditions: 40 µM TCEP-reduced substrate, 0.2 µM enzyme, 20 mM Tris-HCl pH 7.0, 100 mM NaCl, room temperature, 15 min
T1 construct: gene PA14_09950; one replicate with C-terminal mCherry fusion purified from A. fumigatus
T1 sequence (A0A0H2ZG54 entry or part of it): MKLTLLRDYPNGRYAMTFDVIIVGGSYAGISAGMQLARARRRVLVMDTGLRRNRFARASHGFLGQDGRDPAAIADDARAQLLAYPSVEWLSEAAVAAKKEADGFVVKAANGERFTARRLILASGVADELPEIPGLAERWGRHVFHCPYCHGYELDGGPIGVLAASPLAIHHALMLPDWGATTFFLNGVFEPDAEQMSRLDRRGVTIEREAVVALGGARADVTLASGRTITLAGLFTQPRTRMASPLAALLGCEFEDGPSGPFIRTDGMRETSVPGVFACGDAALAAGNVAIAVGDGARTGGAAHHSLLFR

GliT = biological target: T2, GliT (Aspergillus fumigatus, UniProt E9RAH5); type: biochemical; conditions: 40 µM TCEP-reduced substrate, 0.2 µM enzyme, 20 mM Tris-HCl pH 7.0, 100 mM NaCl, room temperature, 15 min
T2 construct: one replicate with C-terminal mCherry fusion purified from A. fumigatus (A1160 background)
T2 sequence (E9RAH5 whole entry, the tested form may be a part): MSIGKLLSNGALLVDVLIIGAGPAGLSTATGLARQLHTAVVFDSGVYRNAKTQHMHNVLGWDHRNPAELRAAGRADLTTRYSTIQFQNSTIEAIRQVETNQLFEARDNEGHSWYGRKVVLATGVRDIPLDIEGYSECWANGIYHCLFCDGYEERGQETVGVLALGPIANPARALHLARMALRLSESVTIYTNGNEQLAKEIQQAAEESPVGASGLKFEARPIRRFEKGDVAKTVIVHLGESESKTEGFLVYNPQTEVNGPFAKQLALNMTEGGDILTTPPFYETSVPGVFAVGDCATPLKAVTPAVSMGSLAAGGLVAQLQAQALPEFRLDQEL

## CN1C(=O)C2(S)CC3=CC=CC(O)C3N2C(=O)C1(S)CO (centres unmarked) [compound 1, reduced gliotoxin]
DnoP (PA4170)
  DTNB assay of residual free thiols at 412 nm: Recombinant PA4170 and GliT catalyzed disulfide oxidation of both gliotoxin and holomycin
GliT
  DTNB assay of residual free thiols at 412 nm: Recombinant PA4170 and GliT catalyzed disulfide oxidation of both gliotoxin and holomycin
